Values quoted from earlier work, collected in patent publication US20230151225A1, “BLENDING ZINC […] BASE MATERIALS IN ORDER TO CREATE QUICKLY APPLIED ANTI-MICROBIAL SURFACES” (CAO Group, Inc., priority 2020, published 2023).

Substance: zinc pyrithione
- solubility in water: 8 ppm
